Results reported in ChEMBL document CHEMBL3045382, “Synthesis of a ligandquencher conjugate for the ligand binding study of the aryl hydrocarbon receptor using a FRET assay” (Med Chem Res, 2012).

Assays:
[1] = Cytotoxicity against rat H4G1.1c3 cells at 10 to 50 uM after 24 hr; type: cell-based
[2] = target: T1, Aryl hydrocarbon receptor (Homo sapiens, UniProt P35869); experiment: Binding affinity to aryl hydrocarbon receptor in Homo sapiens (human) Hep3B cells assessed as upregulation of DRE-driven luciferase expression at 10 uM after 6 hr by Western blot analysis; type: cell-based; conditions: hep 3b2, 6 h
T1 sequence (P35869 whole entry): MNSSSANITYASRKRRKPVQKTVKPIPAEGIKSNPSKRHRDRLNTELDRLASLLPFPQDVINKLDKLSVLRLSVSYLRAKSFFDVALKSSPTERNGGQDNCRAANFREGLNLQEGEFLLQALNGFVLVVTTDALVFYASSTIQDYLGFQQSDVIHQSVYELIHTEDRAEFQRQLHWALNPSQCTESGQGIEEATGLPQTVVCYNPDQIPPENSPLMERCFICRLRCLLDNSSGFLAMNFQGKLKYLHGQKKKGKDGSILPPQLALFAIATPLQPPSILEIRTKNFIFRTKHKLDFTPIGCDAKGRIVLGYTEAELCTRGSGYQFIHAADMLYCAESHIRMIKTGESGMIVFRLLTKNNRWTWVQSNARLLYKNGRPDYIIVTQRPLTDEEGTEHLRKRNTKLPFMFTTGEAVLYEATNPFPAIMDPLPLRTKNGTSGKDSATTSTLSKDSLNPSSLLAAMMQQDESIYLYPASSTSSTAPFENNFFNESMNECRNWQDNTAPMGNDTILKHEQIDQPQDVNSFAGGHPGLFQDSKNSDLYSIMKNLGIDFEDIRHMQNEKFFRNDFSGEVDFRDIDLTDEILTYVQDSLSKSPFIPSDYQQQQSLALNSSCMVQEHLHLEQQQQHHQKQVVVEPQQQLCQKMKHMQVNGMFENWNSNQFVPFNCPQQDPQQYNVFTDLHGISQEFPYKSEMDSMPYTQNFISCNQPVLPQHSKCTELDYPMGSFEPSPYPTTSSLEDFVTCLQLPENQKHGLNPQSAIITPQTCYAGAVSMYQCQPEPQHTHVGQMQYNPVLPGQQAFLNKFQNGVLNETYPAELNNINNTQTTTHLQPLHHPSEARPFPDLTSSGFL

[3] = target: T1, Aryl hydrocarbon receptor; experiment: Competitive binding affinity to aryl hydrocarbon receptor in Homo sapiens (human) Hep3B cells assessed as effect on betaNF-mediated DRE-driven luciferase expression at 10 uM after 6 hr by Western blot analysis relative to control; type: cell-based; conditions: hep 3b2, 6 h
[4] = target: T1, Aryl hydrocarbon receptor; experiment: Binding affinity to full length N-terminal GFP-fused Homo sapiens (human) aryl hydrocarbon receptor ligand binding domain (848 amino acid residues) expressed in baculovirus infected Sf9 cells assessed as fluorescence quenching at 10 uM after 10 min by fluorescence microscopic analysis; conditions: sf9, 10 min
[5] = target: T1, Aryl hydrocarbon receptor; experiment: Binding affinity to full length N-terminal GFP-fused Homo sapiens (human) aryl hydrocarbon receptor ligand binding domain (848 amino acid residues) expressed in baculovirus infected Sf9 cells assessed as fluorescence quenching at 10 uM after 5 min by fluorescence microscopic analysis; conditions: sf9, 5 min
[6] = target: T2, Aryl hydrocarbon receptor (Rattus norvegicus, UniProt P41738); experiment: Partial agonist activity at DRE-driven GFP-fused AhR ligand binding domain in rat H4G1.1c3 cells assessed as induction of DRE-driven GFP expression at 50 uM after 48 hr by fluorescence assay; type: cell-based
T2 sequence (P41738 whole entry): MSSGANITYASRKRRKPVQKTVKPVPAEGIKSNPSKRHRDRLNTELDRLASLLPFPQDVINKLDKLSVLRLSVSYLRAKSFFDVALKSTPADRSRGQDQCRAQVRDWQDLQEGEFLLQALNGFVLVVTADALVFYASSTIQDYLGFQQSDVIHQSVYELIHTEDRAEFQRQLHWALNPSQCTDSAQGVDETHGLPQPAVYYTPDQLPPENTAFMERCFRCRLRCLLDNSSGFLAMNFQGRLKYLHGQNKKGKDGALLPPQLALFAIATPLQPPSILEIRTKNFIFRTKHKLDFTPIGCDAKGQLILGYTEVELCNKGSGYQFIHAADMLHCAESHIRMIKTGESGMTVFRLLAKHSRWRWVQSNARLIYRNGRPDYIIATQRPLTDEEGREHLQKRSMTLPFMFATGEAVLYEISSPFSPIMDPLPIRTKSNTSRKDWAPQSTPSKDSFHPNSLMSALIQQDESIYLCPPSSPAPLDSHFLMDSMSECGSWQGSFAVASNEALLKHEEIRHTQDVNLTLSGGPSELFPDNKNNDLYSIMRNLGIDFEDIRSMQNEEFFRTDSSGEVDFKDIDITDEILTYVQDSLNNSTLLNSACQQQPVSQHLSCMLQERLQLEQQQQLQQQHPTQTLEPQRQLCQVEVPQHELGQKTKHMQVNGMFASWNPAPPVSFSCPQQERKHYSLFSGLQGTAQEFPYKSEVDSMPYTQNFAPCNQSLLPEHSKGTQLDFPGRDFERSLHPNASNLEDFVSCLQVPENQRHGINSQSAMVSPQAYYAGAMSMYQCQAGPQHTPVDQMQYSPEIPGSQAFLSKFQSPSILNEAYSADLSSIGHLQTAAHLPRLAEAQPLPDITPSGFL

[7] = target: T1, Aryl hydrocarbon receptor; experiment: Competitive binding affinity to aryl hydrocarbon receptor in Homo sapiens (human) Hep3B cells assessed as supression of betaNF-mediated DRE-driven luciferase expression at 10 uM after 6 hr by Western blot analysis relative to control; type: cell-based; conditions: hep 3b2, 6 h
[8] = target: T1, Aryl hydrocarbon receptor; experiment: Binding affinity to aryl hydrocarbon receptor in Homo sapiens (human) Hep3B cells assessed as upregulation of DRE-driven luciferase expression at 10 uM after 6 hr by Western blot analysis relative to control; type: cell-based, Hep 3B2; conditions: Hep3B cells with DRE-driven luciferase reporter, read-out: FC
[9] = target: T1, Aryl hydrocarbon receptor; experiment: Binding affinity to full length N-terminal GFP-fused Homo sapiens (human) aryl hydrocarbon receptor ligand binding domain (848 amino acid residues) expressed in baculovirus infected Sf9 cells assessed as fluorescence quenching at 10 uM up to 30 min by fluorescence microscopic analysis; conditions: sf9, 0.5 h
[10] = target: T1, Aryl hydrocarbon receptor; experiment: Competitive binding affinity to full length N-terminal GFP-fused Homo sapiens (human) aryl hydrocarbon receptor ligand binding domain (848 amino acid residues) expressed in baculovirus infected Sf9 cells assessed as reversal of 4-((4-(dimethylamino)phenyl)diazenyl)-N-(2-(2-(2-(2-hydroxyethoxy)ethoxy)ethoxy)ethyl)benzamide4-((4-(dimethylamino)phenyl)diazenyl)-N-(2-(2-(2-(2-hydroxyethoxy)ethoxy)ethoxy)ethyl)benzamide-mediated fluorescence quenching at 5 uM measured at 5 min by fluorescence microscopic analysis; conditions: sf9, 5 min
[11] = target: T1, Aryl hydrocarbon receptor; experiment: Competitive binding affinity to full length N-terminal GFP-fused Homo sapiens (human) aryl hydrocarbon receptor ligand binding domain (848 amino acid residues) expressed in baculovirus infected Sf9 cells assessed as reversal of betaNFQ-mediated fluorescence quenching at 5 uM measured at 5 min by fluorescence microscopic analysis; conditions: sf9, 5 min
[12] = target: T2, Aryl hydrocarbon receptor; experiment: Agonist activity at DRE-driven GFP-fused AhR ligand binding domain in rat H4G1.1c3 cells assessed as induction of DRE-driven GFP expression at 10 uM after 48 hr by fluorescence assay; type: cell-based

| Activity [4] | Activity [5] | Activity [6] | fold induction at 6 h, 10 µM [8] | SMILES | Activity [1] | further results |
| --- | --- | --- | --- | --- | --- | --- |
| 24% | 18% | Active | 14 | CN(C)c1ccc(/N=N/c2ccc(C(=O)NCCOCCOCCOCCOCc3ccc(-c4cc(=O)c5c(ccc6ccccc65)o4)cc3)cc2)cc1 | Non-toxic | fold change (FC) [7]: 23; Activity [9]: 29% |
|  |  |  | 75 | O=c1cc(-c2ccccc2)oc2ccc3ccccc3c12 [BETA-NAPHTHOFLAVONE] |  | Activity [12]: Active |

More lines, now with the values behind:

| SMILES | Activity [4] | Activity [5] | Activity [6] | fold induction at 6 h, 10 µM [8] | Activity [1] | further results |
| --- | --- | --- | --- | --- | --- | --- |
| CN(C)c1ccc(/N=N/c2ccc(C(=O)NCCOCCOCCOCCOCCOCCOCCOCCOCc3ccc(-c4cc(=O)c5c(ccc6ccccc65)o4)cc3)cc2)cc1 |  |  |  |  | Toxic |  |
| CN(C)c1ccc(/N=N/c2ccc(C(=O)NCCOCCOCCOCCO)cc2)cc1 | 16% | 13% | Not Active |  |  | Activity [2]: Not Active; Activity [3]: Not Active |
| Cc1ccc2cc3c(ccc4ccccc43)c3c2c1CC3 [3-METHYLCHOLANTHRENE] |  |  |  |  |  | Activity [10]: Not Active; Activity [11]: Active |
